Reference: US20260174797A1, “MAGNESIUM AND TRACE ELEMENT OXIDE PREMIX FOR ANIMAL NUTRITIONAL SUPPLEMENTATION, AND MANUFACTURING METHOD” (TIMAB MAGNESIUM, priority 2022, published 2026)
Marks after values point to notes of the source that are not given here.

Key:
[1] = in vivo
Description: Each piglet is tagged, weighed and allocated in groups of 8 piglets per pen.
Analyses of the faeces after 14 days of use of the different treatments allowed to assess the amount of zinc not used by the animal and thus released into the soil, contributing to pollution.

[2] = In vivo piglet test: growth performance (weight gain, feed consumption) D0 to D42 post-weaning; design: species or system piglets (Danbred×Duroc); settings: for Daily weight gain: Overall period D0 to D42
Description: The effect of the premix of the invention on the performance and health of piglets in the post-weaning pre-starter stage (0-14 days post-weaning) was evaluated and compared to a standard oxide.
The use of the product of the invention ZnO—MgO was compared with standard zinc oxide at nutritional dose as well as at pharmacological dose in the contents indicated in Table 3.
Piglet weight was measured from D0 to D42 post-weaning in order to record daily weight gain and total weight at the end of the test. Feed consumption of each animal was also recorded each day of the test and recorded as an average to assess the feed conversion ratio (FCR). The FCR corresponds to the conversion index CI. It is equal to the average daily consumption reported to the average daily weight gain. The mean values+/−the standard deviation are presented per treatment.

[3] = tested on: Caco2 cells; settings: Caco-2
[4] = Control Negative: ZnO 150 ppm additive (120 ppm zinc)
[5] = Control Positive: ZnO 3261 ppm additive (2620 ppm zinc)
[6] = Pre-starter phase D0 to D14, Control Negative: ZnO 150 ppm additive (120 ppm zinc)
[7] = Pre-starter phase D0 to D14, Control Positive: ZnO 3261 ppm additive (2620 ppm zinc)

| Compound | zinc content measured in the feces [1] [ppm] | Live weight Day 0 [2, 4] [kg] | Live weight Day 14 [2, 4] | Live weight Day 42 [2, 4] | Live weight Day 0 [2, 5] [kg] | Live weight Day 14 [2, 5] | Live weight Day 42 [2, 5] | Daily weight gain [2, 4] | Daily weight gain [2, 5] | Average daily feed consumption [2, 6] [kg/day] | Average daily weight gain [2, 6] | Feed conversion ratio [2, 6] | Average daily feed consumption [2, 7] [kg/day] | Average daily weight gain [2, 7] | Feed conversion ratio [2, 7] | Average daily weight gain ([2]; Starter phase D15 to D42, Control Negative: ZnO 150 ppm additive (120 ppm zinc)) | Average daily weight gain ([2]; Starter phase D15 to D42, Control Positive: ZnO 3261 ppm additive (2620 ppm zinc)) | Total Zn absorbed on cell [3] [mg/L] |
| --- | --- | --- | --- | --- | --- | --- | --- | --- | --- | --- | --- | --- | --- | --- | --- | --- | --- | --- |
| [O]=[Zn] [Control, ZnO] | 925 | 6.75 | 9.61^b kg | 26.15^ab kg | 6.74 | 10.01^ab kg | 25.33^b kg | 0.463^ab kg/day | 0.444^b kg/day | 0.380 | 0.205^b kg/day | 1.863^a kg/kg | 0.395 | 0.233^ab kg/day | 1.705^b kg/kg | 0.611^ab kg/day | 0.571^b kg/day |  |
| ZnO—MgO [Premix of the invention MgO—ZnO] |  |  |  |  |  |  |  |  |  |  |  |  |  |  |  |  |  | 1.89 |
